# Earlier results in publication PMC12623819 (Scientific Reports, 2025).
# What was measured:
# [1] = system: nectin-4-expressing cells; conditions: in vitro
# [2] = system: cell surface-expressed nectin-4
substance,measurement,setting,value
enfortumab vedotin: ADC comprising a human nectin-4 antibody conjugated to the microtubule-disrupting agent MMAE,induction of cell death,[1],induce cell death in a dose-dependent manner
same,binding to cell surface-expressed nectin-4,[2],high affinity
